This passage reports EC50 results from patent US11236055B2 (Venenum Biodesign, LLC, priority 2016, dated 2022).

Some results are limits rather than exact numbers.

One experiment concerns the target T1, human TGR5 receptor (Homo sapiens, UniProt Q8TDU6).
T1 construct: host or cells: CHO-K1 (hTGR5-CHO cells)
T1 sequence (Q8TDU6 1-330): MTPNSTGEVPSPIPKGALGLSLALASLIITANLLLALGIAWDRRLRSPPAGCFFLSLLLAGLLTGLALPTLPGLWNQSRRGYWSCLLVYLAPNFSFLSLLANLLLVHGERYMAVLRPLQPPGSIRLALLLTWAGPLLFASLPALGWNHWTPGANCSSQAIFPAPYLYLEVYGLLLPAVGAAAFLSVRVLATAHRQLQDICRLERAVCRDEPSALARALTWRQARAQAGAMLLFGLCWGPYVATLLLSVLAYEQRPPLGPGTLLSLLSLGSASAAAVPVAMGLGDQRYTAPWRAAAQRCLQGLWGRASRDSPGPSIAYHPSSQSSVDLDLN
Nature of the experiment: Human TGR5 cAMP production assay. In kind it is cell-based. As to conditions: human TGR5, luminescent cAMP assay; coded A-D; read-out: Human TGR5 Lum. cAMP Activity (EC50). The procedure, abridged: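 CHO-K1 cells stably expressing human TGR5, with IBMX and cAMP antibody, were exposed to half-log serially diluted compound for 1 h at room temperature. cAMP measured by enzyme-fragment complementation luminescence (XS+ kit) after overnight incubation; EC50 values reported.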
A general note: Changes in cAMP serve as a functional read-out for many G protein-coupled receptors.

A further experiment has as its system Mouse STC-1 cells. In words: STC-1 GLP-1 assay. In kind it is cell-based. As to conditions: GLP-1 secretion, 2 h, coded A-C, read-out: Mouse STC-1 HTRF GLP-1 Activity (EC50). Put shortly:
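Cells were seeded two days before in charcoal-stripped FBS medium, then exposed 2 h at 37 °C to compounds (12-point half-log series) in HBSS with protease inhibitors, DPP-IV inhibitor and 0.1% fatty acid free BSA. Active GLP-1 in supernatants measured by HTRF; EC50 derived.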
For orientation: In TR-FRET formats the signal depends on donor and acceptor labels being close together.

The EC50 is the concentration at which the effect is half-maximal. Consider `Cc1cnccc1-c1cccc(C(C)(C)N(CCCC(=O)NC[C@@H](O)[C@H](O)[C@@H](O)[C@@H](O)CO)S(=O)(=O)c2cccc(Cl)c2C)c1` [Compound 20AF, 4-(3-chloro-2-methyl-N-(2-(3-(3-methylpyridin-4-yl)phenyl)propan-2-yl)phenylsulfonamido)-N-((2R,3S,4S,5S)-2,3,4,5,6-pentahydroxyhexyl)butanamide], for which the EC50 at human TGR5 receptor was less than 100 nM; in the experiment with Mouse STC-1 cells it was 100 to 999 nM.
For `Cc1cnccc1-c1cccc([C@H](C)N(CCCCC(=O)NCCS(=O)(=O)O)S(=O)(=O)c2cccc(Cl)c2C)c1` [Compound 20AH, (S)-2-(5-(3-chloro-2-methyl-N-(1-(3-(3-methylpyridin-4-yl)phenyl)ethyl)phenylsulfonamido)pentanamido)ethanesulfonic acid] the same measures were less than 100 nM and 1000 to 30000 nM.
For `CCc1cnccc1-c1cccc([C@H](C)N(CCCC(=O)NCCCS(=O)(=O)O)S(=O)(=O)c2cccc(Cl)c2C)c1` [Compound 20AM, (S)-3-(4-(3-chloro-N-(1-(3-(3-ethylpyridin-4-yl)phenyl)ethyl)-2-methylphenylsulfonamido)butanamido)propane-1-sulfonic acid] the same measures were less than 100 nM and 100 to 999 nM.
Turning to `CCc1cnccc1-c1cccc([C@H](C)N(CCCC(=O)NC[C@@H](O)[C@H](O)[C@@H](O)[C@@H](O)CO)S(=O)(=O)c2cccc(Cl)c2C)c1` [Compound 20AN, 4-(3-chloro-N-((S)-1-(3-(3-ethylpyridin-4-yl)phenyl)ethyl)-2-methylphenylsulfonamido)-N-((2R,3S,4S,5S)-2,3,4,5,6-pentahydroxyhexyl)butanamide], the EC50 is less than 100 nM on human TGR5 receptor and 100 to 999 nM in the experiment on Mouse STC-1 cells.
On the same counts, the results for `CCc1cnccc1-c1cccc([C@H](C)N(CCCC(=O)NCCS(=O)(=O)O)S(=O)(=O)c2ccccc2C)c1` [Compound 20AR, (S)-2-(4-(N-(1-(3-(3-ethylpyridin-4-yl)phenyl)ethyl)-2-methylphenyl-sulfonamido)butanamido)ethane sulfonic acid] are less than 100 nM and 100 to 999 nM.
`CCc1cnccc1-c1cccc([C@H](C)N(CCCC(=O)NCCS(=O)(=O)O)S(=O)(=O)c2ccccc2C(F)(F)F)c1` [Compound 20BF, (S)-2-(4-(N-(1-(3-(3-ethylpyridin-4-yl)phenyl)ethyl)-2-(trifluoromethyl)phenylsulfonamido)butanamido)ethanesulfonic acid]: the EC50 on human TGR5 receptor was less than 100 nM; with Mouse STC-1 cells it was 100 to 999 nM.
For `CCc1cnccc1-c1cccc([C@H](C)N(CCCC(=O)NCCS(=O)(=O)NCC(=O)O)S(=O)(=O)c2ccccc2C(F)(F)F)c1` [Compound 20BG], the results for the EC50 at human TGR5 receptor and in the experiment on Mouse STC-1 cells were less than 100 nM and 100 to 999 nM, respectively.
In the case of `Cc1cnccc1-c1cccc([C@H](C)N(CCCC(=O)NCCS(=O)(=O)NCCCC(=O)O)S(=O)(=O)c2ccccc2C(F)(F)F)c1` [Compound 20BK], the values for the EC50 on human TGR5 receptor and in the experiment with Mouse STC-1 cells were less than 100 nM and 1000 to 30000 nM, respectively.
Consider `Cc1cnccc1-c1cccc([C@H](C)N(CCCCC(=O)NCCS(=O)(=O)NCC(=O)O)S(=O)(=O)c2ccccc2C(F)(F)F)c1` [Compound 20BL, (S) 2-(4-(N-(1-(3-(3-methylpyridin-4-yl)phenyl)ethyl)-2-(trifluoromethyl)phenylsulfonamidopentanamido)ethylsulfonamido)acetic acid], for which the EC50 is less than 100 nM at human TGR5 receptor and 1000 to 30000 nM in the experiment on Mouse STC-1 cells.
Take `Cc1cnccc1-c1cccc([C@H](C)N(CCCCC(=O)NCCS(=O)(=O)NCCC(=O)O)S(=O)(=O)c2ccccc2C(F)(F)F)c1` [Compound 20BM]: the EC50 at human TGR5 receptor was less than 100 nM; in the experiment on Mouse STC-1 cells, 1000 to 30000 nM.
Consider `CCc1cnccc1-c1cccc([C@H](C)N(CCCC(=O)NCCS(=O)(=O)NCC(=O)O)S(=O)(=O)c2ccccc2C)c1` [Compound 20BU, (S)-2-(4-(2-methyl-N-(1-(3-(3-ethylpyridin-4-yl)phenyl)ethyl)phenylsulfonamido)butanamidoethylsulfonamido)acetate], for which the EC50 on human TGR5 receptor is less than 100 nM; in the experiment with Mouse STC-1 cells it was 100 to 999 nM.
